According to patent US8956160B2, “Device and method for delivering an oral care agent” (Ranir, LLC, priority 2002, dated 2015):

Test: Accelerated H2O2 stability study with individual ingredients of backing, anchor and oral care layers
Assay type: physicochemical
Conditions: 40° C./75% RH, up to 9 weeks
Procedure: Accelerated H2O2 stability studies were conducted at 40° C./75% relative humidity (RH) with the individual ingredients used to form the backing, anchor and oral care layers as described in Example 1.

H2O2 stability: good stability
Structure (SMILES): OO [Device H2O2, hydrogen peroxide]
